Assay results taken from US20020049173A1, “Alteration of cellular behavior by antisense modulation of mRNA processing” (priority 1999, published 2002).
In the oligonucleotide strings, read from the 5' end, every base follows the letter of its sugar. An asterisk marks phosphorothioate; unmarked linkages are phosphodiester. Other units and linkages are bracketed, terminal groups are in braces. A string of capitals states the bases alone. e = 2'-O-(2-methoxyethyl) (MOE); [5mC] = 5-methylcytosine; d = 2'-deoxy (DNA)

Tests used:
[1] = test system: Human IL-5 receptorα membrane form mRNA; test: Human IL-5 receptorα membrane form mRNA expression (18 hr); format: cell-based; set-up: % INHIB'N, human IL-5 receptorα membrane form mRNA / % of CONTROL, human IL-5 receptorα membrane form mRNA: concentration or dose not given beside the values; conditions: 18 hr
Excerpt: mRNA transcripts encoding the membrane form of the human IL-5 receptorα contain exons 1-10 and 12-14. Exon 11 is spliced out. It is, therefore, possible to target sequences in exons 1-10 which are common to both soluble and membrane forms of the receptor, or to selectively target sequences only present in the membrane form (exons 12-14). Oligonucleotides were also designed to target various intron/exon boundaries downstream of exon 11, with the intention of preventing successful splicing out of exon 11 and thus redirecting splice products away from the membrane form and in favor of the soluble form of IL-5 receptorα.
(§1) A series of oligonucleotides were designed to target various splice sites or (intron-exon boundaries) in the IL-5 receptor mRNA.

[2] = test system: Human IL-5 receptorα; test: Human IL-5 receptorα protein expression on the cell surface (36 hr), TF-1 cells; format: cell-based; set-up: % INHIB, human IL-5 receptorα protein on the cell surface / % of CONTROL, human IL-5 receptorα protein on the cell surface: concentration or dose not given beside the values; conditions: for % INHIB, human IL-5 receptorα protein on the cell surface / % of CONTROL, human IL-5 receptorα protein on the cell surface: 36 hr
Excerpt: as §1
ISIS 16746, 16748, 16755 and 16758 inhibited human IL-5 receptorα protein by over 50% in this assay and are therefore preferred. ISIS 16758 and 16755 were chosen for further study.

[3] = test system: murine IL-5 receptor α mRNA, membrane form; test: Membrane IL-5 receptor α mRNA by Northern blot in BCL1 cells; format: cell-based, mouse; conditions: BCL1 cells, 10 μM, Northern blot, compared to untreated control; 2′-MOE gapmers
Excerpt: (§2) Murine BCL1 cells were chosen for screening antisense oligonucleotides targeted to murine IL-5 receptor α. These are B-cell leukemia cells derived from a spontaneously arising tumor of BALB/c origin, and proliferate in response to murine or human IL-5. This is a CD5+line which resembles a subset of human chronic lymphocytic leukemia tumors and secretes IgM upon lipopolysaccharide stimulation. Cells were obtained from the American Type Culture Collection and cultured in RPMI 1640 medium supplemented with 10% heat-inactivated fetal bovine serum (Sigma Chemical Co., St. Louis, Mo.), 10 mM Hepes, pH 7.2, 50 μM 2-ME, 2 mM L-glutamine, 100 U/ml penicillin and 100 μg/ml streptomycin (Gibco, Grand Island, N.Y.).
(§3) The effect of these compounds on both membrane and soluble forms of murine IL-5 receptor α were measured and are shown in Table 1B. Oligonucleotides were screened in BCL1 cells at a dose of 10 μM and IL-5 receptor α mRNA was measured by Northern blot. Percent inhibition is compared to untreated (no oligo) control.
(§4) Total BCL1 cellular RNA was isolated using the RNeasy™ kit (Qiagen, Santa Clara Calif.) . Northern blotting was performed using standard methods. The cDNA probes were generated from oligonucleotides matching the exon sequences of either exons 2, 8, 9 or 10. Signals were quantitated using a Molecular Dynamics PhosphorImager.

[4] = test system: murine IL-5 receptor α mRNA, soluble form; test: Soluble IL-5 receptor α mRNA by Northern blot in BCL1 cells; format: cell-based, mouse; conditions: BCL1 cells, 10 μM, Northern blot, compared to untreated control; 2′-MOE gapmers
Excerpt: as §2, §3, §4

Substance	% INHIB'N, human IL-5 receptorα membrane form mRNA [1]	% of CONTROL, human IL-5 receptorα membrane form mRNA [1] [%]	% INHIB, human IL-5 receptorα protein on the cell surface [2]	% of CONTROL, human IL-5 receptorα protein on the cell surface [2] [%]	also measured
16746 (antisense eA*e[5mC]*e[5mC]*e[5mC]*eA*eG*e[5mC]*eT*eT*eT*e[5mC]*eT*eG*e[5mC]*eA*eA*eA*eA*e[5mC]*eA) [compound 16746]	64%	36	65%	35	–
16747 (antisense ACCCAGCTTTCTGCAAAACA; listed as DNA, chemistry not fully specified) [compound 16747]	34%	66	19.5%	80.5	–
16748 (antisense ACCCAGCTTTCTGCAAAACA; listed as DNA, chemistry not fully specified) [compound 16748]	75%	25	59.5%	40.5	–
16749 (antisense eT*e[5mC]*eA*eA*e[5mC]*eA*eT*eT*eA*e[5mC]*e[5mC]*eT*e[5mC]*eA*eT*eA*eG*eT*eT*eA) [compound 16749]	–	101	25%	75	–
16750 (antisense dT*dC*dA*dA*dC*dA*dT*dT*dA*dC*e[5mC]*eT*e[5mC]*eA*eT*eA*eG*eT*eT*eA) [compound 16750]	4%	96	9%	91	–
16751 (antisense eT*e[5mC]*eA*eA*e[5mC]*dA*dT*dT*dA*dC*dC*dT*dC*dA*dT*eA*eG*eT*eT*eA) [compound 16751]	4%	96	–	101	–
16752 (antisense eT*eA*eA*eA*eT*eG*eA*e[5mC]*eA*eT*e[5mC]*eT*eG*eA*eA*eA*eA*e[5mC]*eA*eG) [compound 16752]	–	101	–	100.5	–
16753 (antisense dT*dA*dA*dA*dT*dG*dA*dC*dA*dT*e[5mC]*eT*eG*eA*eA*eA*eA*e[5mC]*eA*eG) [compound 16753]	2%	98	4%	96	–
16754 (antisense eT*eA*eA*eA*eT*dG*dA*dC*dA*dT*dC*dT*dG*dA*dA*eA*eA*e[5mC]*eA*eG) [compound 16754]	–	101	–	100.5	–
16755 (antisense eG*eA*eA*e[5mC]*eA*e[5mC]*eT*eT*eA*e[5mC]*eA*eT*eT*eT*eT*eA*e[5mC]*eA*eG*eA) [compound 16755]	84%	15.5	89.5%	10.5	–
16756 (antisense dG*dA*dA*dC*dA*dC*dT*dT*dA*dC*eA*eT*eT*eT*eT*eA*e[5mC]*eA*eG*eA) [compound 16756]	4%	96	–	101	–
16757 (antisense eG*eA*eA*e[5mC]*eA*dC*dT*dT*dA*dC*dA*dT*dT*dT*dT*eA*e[5mC]*eA*eG*eA) [compound 16757]	9%	91	19%	81	–
16759 (antisense dT*dC*dA*dT*dC*dA*dT*dT*dT*dC*e[5mC]*eT*eG*eG*eT*eG*eG*eA*eA*eA) [compound 16759]	19%	81	24.5%	75.5	–
16760 (antisense eT*e[5mC]*eA*eT*e[5mC]*dA*dT*dT*dT*dC*dC*dT*dG*dG*dT*eG*eG*eA*eA*eA) [compound 16760]	24%	76	29%	71	–
18001 (CAAGGACTTCCTTTCCTTTC; antisense; listed as DNA, chemistry not fully specified) [compound 18001]	–	–	–	–	% inhibition of membrane IL-5 Rα [3]: 35%; % inhibition of soluble IL-5 Rα [4]: 39%
18002 (GCCATTCTACCAAGGACTTC; listed as DNA, chemistry not fully specified) [compound 18002]	–	–	–	–	% inhibition of membrane IL-5 Rα [3]: 5%; % inhibition of soluble IL-5 Rα [4]: 8%
18003 (ACAATGAGATGCCATTCTAC; antisense; listed as DNA, chemistry not fully specified) [compound 18003]	–	–	–	–	% inhibition of membrane IL-5 Rα [3]: 15%; % inhibition of soluble IL-5 Rα [4]: 20%
18004 (TGTTGGGAGCACAATGAGAT; antisense; listed as DNA, chemistry not fully specified) [compound 18004]	–	–	–	–	% inhibition of membrane IL-5 Rα [3]: 10%; % inhibition of soluble IL-5 Rα [4]: 20%
18005 (AGCAGGCAGCTGTTGGGAGC; antisense; listed as DNA, chemistry not fully specified) [compound 18005]	–	–	–	–	% inhibition of membrane IL-5 Rα [3]: 55%; % inhibition of soluble IL-5 Rα [4]: 59%
18006 (TGAGAAGATTAACAAGACGA; antisense; listed as DNA, chemistry not fully specified) [compound 18006]	–	–	–	–	% inhibition of membrane IL-5 Rα [3]: 59%; % inhibition of soluble IL-5 Rα [4]: 65%
18007 (eT*eG*e[5mC]*eA*eG*dA*dT*dG*dA*dG*dT*dG*dA*dG*dA*eA*eG*eA*eT*eT; antisense) [compound 18007]	–	–	–	–	% inhibition of membrane IL-5 Rα [3]: 65%; % inhibition of soluble IL-5 Rα [4]: 65%
ISIS 16746: ACCCAGCTTTCTGCAAAACA, SEQ ID 31; human IL-5R I13/E14; 2′-MOE pattern (bold) not visible (antisense eA*e[5mC]*e[5mC]*e[5mC]*eA*eG*e[5mC]*eT*eT*eT*e[5mC]*eT*eG*e[5mC]*eA*eA*eA*eA*e[5mC]*eA)	over 50%	–	over 50%	–	–
ISIS 16748: ACCCAGCTTTCTGCAAAACA, SEQ ID 31; human IL-5R I13/E14; 2′-MOE pattern not visible (antisense eA*e[5mC]*e[5mC]*e[5mC]*eA*dG*dC*dT*dT*dT*dC*dT*dG*dC*dA*eA*eA*eA*e[5mC]*eA)	over 50%	–	over 50%	–	–
ISIS 18002: GCCATTCTACCAAGGACTTC, SEQ ID 2; 2′-MOE gapmer, mouse IL-5R exon 9 (listed as DNA, chemistry not fully specified)	–	–	–	–	% inhibition of membrane IL-5 Rα [3]: inhibitor of both forms of IL-5 receptorα
ISIS 18009: TCATCATTTACTGGTGGAAA, SEQ ID 36; mismatch of 16758 (antisense eT*e[5mC]*eA*eT*e[5mC]*eA*eT*eT*eT*eA*e[5mC]*eT*eG*eG*eT*eG*eG*eA*eA*eA) [reference compound]	–	–	–	–	IC50 ([2]; TF-1 cells, read-out: IC50 for reduction of IL-5 receptorα cell surface protein): 10 µM
ISIS 18010: TCAGCATTTACTGGTGTAAA, SEQ ID 37; mismatch of 16758 (antisense eT*e[5mC]*eA*eG*e[5mC]*eA*eT*eT*eT*eA*e[5mC]*eT*eG*eG*eT*eG*eT*eA*eA*eA) [reference compound]	–	–	–	–	inhibition of IL-5 receptorα expression (mismatch controls) ([2]; TF-1 cells): did not inhibit
ISIS 18011: TCAGCAGTTACTTGTGTAAA, SEQ ID 38; 5-mismatch for 16758 (antisense eT*e[5mC]*eA*eG*e[5mC]*eA*eG*eT*eT*eA*e[5mC]*eT*eT*eG*eT*eG*eT*eA*eA*eA) [reference compound]	–	–	–	–	inhibition of IL-5 receptorα expression (mismatch controls) ([2]; TF-1 cells): did not inhibit
